Results reported in patent US20230190760A1, “ADVANTAGEOUS THERAPIES FOR DISORDERS MEDIATED BY IKAROS OR AIOLOS” (C4 Therapeutics, Inc., priority 2020, published 2023).

System: Interferon-response proteins in DL-40 ALCL xenograft tumors
Assay: Global proteomics and gene ontology of DL-40 ALCL xenograft tumors, 48 hours after dose
Format: in vivo, mice
Design: Log2 vs Vehicle, 0AS1: dose or concentration left out as unconfirmed
Procedure: […] Gene ontology analysis was done by using BINGO, a Java-based tool that is implemented as a plugin for Cytoscape. Default settings were used to assess the overexpression of GO categories and the interactions among altered proteins were determined using the STRING database, with a cutoff score of 700.

O=C1CC[C@H](N2C(=O)c3cccc4c(Cc5ccc(CN6CCOCC6)cc5)ccc2c34)C(=O)N1 (single isomer, unassigned) [Compound 1]
Log2 vs Vehicle, KPNA3 (0.1 nM for 48 hr): 0
Log2 vs Vehicle, KPNA4 (0.1 nM for 48 hr): 0.075
Log2 vs Vehicle, KPNB1 (0.1 nM for 48 hr): 0.038
Log2 vs Vehicle, MAPK3 (0.1 nM for 48 hr): −0.042
Log2 vs Vehicle, MT2A (0.1 nM for 48 hr): −0.297
Log2 vs Vehicle, MX1 (0.1 nM for 48 hr): 1.715
Log2 vs Vehicle, MX2 (0.1 nM for 48 hr): 0.83
Log2 vs Vehicle, NCAM1 (0.1 nM for 48 hr): −0.127
Log2 vs Vehicle, NDC1 (0.1 nM for 48 hr): −0.063
Log2 vs Vehicle, NEDD4 (0.1 nM for 48 hr): 0.375
Log2 vs Vehicle, NUP35 (0.1 nM for 48 hr): −0.023
Log2 vs Vehicle, NUP37 (0.1 nM for 48 hr): −0.009
Log2 vs Vehicle, NUP43 (0.1 nM for 48 hr): −0.042
Log2 vs Vehicle, NUP50 (0.1 nM for 48 hr): −0.009
Log2 vs Vehicle, NUP54 (0.1 nM for 48 hr): 0.014
Log2 vs Vehicle, NUP62 (0.1 nM for 48 hr): −0.019
Log2 vs Vehicle, NUP85 (0.1 nM for 48 hr): −0.05
Log2 vs Vehicle, NUP88 (0.1 nM for 48 hr): 0.031
Log2 vs Vehicle, NUP93 (0.1 nM for 48 hr): 0.029
Log2 vs Vehicle, NUP107 (0.1 nM for 48 hr): 0.033
Log2 vs Vehicle, NUP133 (0.1 nM for 48 hr): −0.019
Log2 vs Vehicle, NUP153 (0.1 nM for 48 hr): −0.013
Log2 vs Vehicle, NUP155 (0.1 nM for 48 hr): 0.001
Log2 vs Vehicle, NUP160 (0.1 nM for 48 hr): 0.026
Log2 vs Vehicle, NUP188 (0.1 nM for 48 hr): 0.029
Log2 vs Vehicle, NUP205 (0.1 nM for 48 hr): −0.001
Log2 vs Vehicle, NUP210 (0.1 nM for 48 hr): 0.045
Log2 vs Vehicle, NUP214 (0.1 nM for 48 hr): −0.08
Log2 vs Vehicle, NUPL2 (0.1 nM for 48 hr): 0.073
Log2 vs Vehicle, OAS2 (0.1 nM for 48 hr): 0.478
Log2 vs Vehicle, OAS3 (0.1 nM for 48 hr): 0.884
Log2 vs Vehicle, OASL (0.1 nM for 48 hr): 0.111
Log2 vs Vehicle, P0M121 (0.1 nM for 48 hr): −0.05
Log2 vs Vehicle, P0M121C (0.1 nM for 48 hr): −0.039
Log2 vs Vehicle, PDE12 (0.1 nM for 48 hr): 0.013
Log2 vs Vehicle, PIAS1 (0.1 nM for 48 hr): −0.114
Log2 vs Vehicle, PINI (0.1 nM for 48 hr): 0.05
Log2 vs Vehicle, PLCG1 (0.1 nM for 48 hr): 0.052
Log2 vs Vehicle, PML (0.1 nM for 48 hr): 0.176
Log2 vs Vehicle, PPM1B (0.1 nM for 48 hr): −0.001
Log2 vs Vehicle, PRKCD (0.1 nM for 48 hr): 0.506
Log2 vs Vehicle, PSMB8 (0.1 nM for 48 hr): 0.021
Log2 vs Vehicle, PTPN1 (0.1 nM for 48 hr): 0.009
Log2 vs Vehicle, PTPN6 (0.1 nM for 48 hr): 0.402
Log2 vs Vehicle, PTPN11 (0.1 nM for 48 hr): 0.001
Log2 vs Vehicle, RAE1 (0.1 nM for 48 hr): −0.034
Log2 vs Vehicle, RANBP2 (0.1 nM for 48 hr): −0.044
Log2 vs Vehicle, RNASEL (0.1 nM for 48 hr): −0.218
Log2 vs Vehicle, RPS27A (0.1 nM for 48 hr): −0.054
Log2 vs Vehicle, SAMHD1 (0.1 nM for 48 hr): 0.128
Log2 vs Vehicle, SP100 (0.1 nM for 48 hr): −0.028
Log2 vs Vehicle, STAT1 (0.1 nM for 48 hr): 0.218
Log2 vs Vehicle, STAT2 (0.1 nM for 48 hr): 0.271
Log2 vs Vehicle, TPR (0.1 nM for 48 hr): −0.053
Log2 vs Vehicle, TRIM5 (0.1 nM for 48 hr): 0.107
Log2 vs Vehicle, TRIM14 (0.1 nM for 48 hr): 0.183
Log2 vs Vehicle, TRIM21 (0.1 nM for 48 hr): 0.175
Log2 vs Vehicle, TRIM22 (0.1 nM for 48 hr): 0.331
Log2 vs Vehicle, TRIM25 (0.1 nM for 48 hr): 0.161
Log2 vs Vehicle, TRIM26 (0.1 nM for 48 hr): 0.019
Log2 vs Vehicle, TRIM35 (0.1 nM for 48 hr): 0.144
Log2 vs Vehicle, TRIM38 (0.1 nM for 48 hr): 0.119
Log2 vs Vehicle, TYK2 (0.1 nM for 48 hr): −0.039
Log2 vs Vehicle, UBA7 (0.1 nM for 48 hr): 0.366
Log2 vs Vehicle, UBE2E1 (0.1 nM for 48 hr): −0.218
Log2 vs Vehicle, UBE2L6 (0.1 nM for 48 hr): 0.13
Log2 vs Vehicle, UBE2N (0.1 nM for 48 hr): 0.02
Log2 vs Vehicle, VCAM1 (0.1 nM for 48 hr): −0.744
network impacted (gene ontology) (48 hours after oral 100 μg/kg): Interferon (IFN) signaling was the most prominent network impacted
Log2 vs Vehicle, 0AS1 (for 48 hr): 1.414
